# Experimental data: US6737383B1, “Herbicidal oxadiazolidines” (priority 1999, dated 2004)
# Tests used:
# [1] = system: wild oat; experiment: Test B pre/postemergence wild oat; format: in vivo, Avena fatua
# How it was run: (§1)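 Herbicidal effect was estimated by eye on a ten-point control scale after plants spent twelve to sixteen days in a greenhouse following soil or foliar treatment. Foliar sprays targeted plants at one to four leaves; all doses were formulated in a non-phytotoxic solvent with surfactant.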
# [2] = system: soybean; experiment: Test B pre/postemergence soybean; format: in vivo, Glycine max
# How it was run: as §1
# [3] = system: surinam grass; experiment: Test B pre/postemergence surinam grass; format: in vivo, Brachiaria decumbens
# How it was run: as §1
# [4] = system: rice; experiment: Test B flood test rice; format: in vivo, Oryza sativa
# How it was run: (§2)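 Read-out is a visual response score from 0 (no effect) to 10 (complete control), assigned by comparison with untreated controls. Treatment was applied at the 2-leaf stage, and plants stayed in the greenhouse for twelve to sixteen days before scoring.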
# [5] = system: wheat; experiment: Test B pre/postemergence wheat; format: in vivo, Triticum aestivum
# How it was run: as §1
# [6] = system: duck salad; experiment: Test B flood test duck salad; format: in vivo, Heteranthera limosa
# How it was run: as §2
# [7] = system: blackgrass; experiment: Test B pre/postemergence blackgrass; format: in vivo, Alopecurus myosuroides
# How it was run: as §1
# [8] = system: rape; experiment: Test B pre/postemergence rape; format: in vivo, Brassica napus
# How it was run: as §1
# [9] = system: corn; experiment: Test B pre/postemergence corn; format: in vivo, Zea mays
# How it was run: as §1
# [10] = system: bamyardgrass; experiment: Test B flood test barnyardgrass; format: in vivo, Echinochloa crus-galli
# How it was run: as §2
# [11] = system: sugar beet; experiment: Test B pre/postemergence sugar beet; format: in vivo, Beta vulgaris
# How it was run: as §1
# [12] = system: morningglory; experiment: Test B pre/postemergence morningglory; format: in vivo, Ipomoea hederacea
# How it was run: as §1
# [13] = system: bedstraw; experiment: Test B pre/postemergence bedstraw; format: in vivo, Galium aparine
# How it was run: as §1
# [14] = system: velvetleaf; experiment: Test B pre/postemergence velvetleaf; format: in vivo, Abutilon theophrasti
# How it was run: as §1
# [15] = system: giant foxtail; experiment: Test B pre/postemergence giant foxtail; format: in vivo, Setaria faberii
# How it was run: as §1
# [16] = system: smallflower flatsedge; experiment: Test B flood test smallflower flatsedge; format: in vivo, Cyperus difformis
# How it was run: as §2
# [17] = system: purple nutsedge; experiment: Test B pre/postemergence purple nutsedge; format: in vivo, Cyperus rotundus
# How it was run: as §1
# [18] = system: crabgrass; experiment: Test B pre/postemergence crabgrass; format: in vivo, Digitaria sanguinalis
# How it was run: as §1
# [19] = system: cocklebur; experiment: Test B pre/postemergence cocklebur; format: in vivo, Xanthium strumarium
# How it was run: as §1
# [20] = system: pigweed; experiment: Test B pre/postemergence pigweed; format: in vivo, Amaranthus retroflexus
# How it was run: as §1
# [21] = Postemergence, Rate 125 g/ha, scale 0 to 10, 0 is no effect, 10 is complete control
# [22] = Postemergence, Rate 500 g/ha, scale 0 to 10, 0 is no effect, 10 is complete control
# [23] = Preemergence, Rate 62 g/ha, scale of 0 to 10 where 0 is no effect and 10 is complete control
# [24] = Preemergence, Rate 125 g/ha, scale 0 to 10, 0 is no effect, 10 is complete control
# [25] = Preemergence, Rate 500 g/ha, scale of 0 to 10 where 0 is no effect and 10 is complete control
# [26] = Rate 62 g/ha, Postemergence, scale 0 to 10, 0 no effect, 10 complete control
# [27] = Preemergence, Rate 250 g/ha, scale 0 to 10, 0 is no effect, 10 is complete control
# [28] = Rate 62 g/ha, flood test species, Pre-emergence, visual evaluation after twelve to sixteen days
# [29] = Rate 125 g/ha, under heading Pre-emergence, flood test species, visual evaluation after twelve to sixteen days
# [30] = Rate 250 g/ha, Pre-emergence (flood test species), scale 0 to 10, 0 is no effect, 10 is complete control
# [31] = Rate 500 g/ha, Pre-emergence section of Table B, 0 to 10 scale (0 no effect, 10 complete control)
# [32] = Postemergence, Rate 250 g/ha, scale 0 to 10
smiles,measurement,setting,value
CC(C)N(C(=O)n1oc(=O)n(CC2=CCCCC2)c1=O)c1ccccc1 [Compound 496],Wild oats plant response rating,[1]; [21],0
same,"Plant response rating, Wild oats",[1]; [22],2
same,"Plant response rating, Wild oats",[1]; [23],0
same,Wild oats plant response rating,[1]; [24],0
same,Wild oats plant response rating,[1]; [25],0
same,Wild oats plant response rating,[1]; [26],0
same,Soybean plant response rating,[2]; [21],3
same,"Plant response rating, Soybean",[2]; [22],3
same,"Plant response rating, Soybean",[2]; [23],0
same,Soybean plant response rating,[2]; [24],0
same,Soybean plant response rating,[2]; [25],0
same,Soybean plant response rating,[2]; [26],2
same,B. signalgrass plant response rating,[3]; [21],0
same,B. signalgrass plant response rating,"[3]; Postemergence, Rate 250 g/ha, scale 0 to 10, 0 no effect, 10 complete control",0
same,"Plant response rating, B. signalgrass",[3]; [22],4
same,"Plant response rating, B. signalgrass",[3]; [23],0
same,B. signalgrass plant response rating,[3]; [24],0
same,B. signalgrass plant response rating,[3]; [27],1
same,B. signalgrass plant response rating,"[3]; Preemergence, Rate 500 g/ha, scale 0 to 10, 0 is no effect, 10 is complete control",8
same,B. signalgrass plant response rating,[3]; [26],0
same,"Plant response rating, Rice (0 to 10 scale, 0 is no effect, 10 is complete control)",[4]; [28],0
same,"Rice plant response rating (0 to 10 scale, 0 is no effect, 10 is complete control)",[4]; [29],0
same,Rice plant response rating,[4]; [30],0
same,Rice plant response rating,[4]; [31],0
same,Wheat plant response rating,[5]; [21],0
same,"Plant response rating, Wheat",[5]; [22],3
same,"Plant response rating, Wheat",[5]; [23],0
same,Wheat plant response rating,[5]; [24],0
same,Wheat plant response rating,[5]; [25],0
same,Wheat plant response rating,[5]; [26],0
same,"Plant response rating, Ducksalad (0 to 10 scale, 0 is no effect, 10 is complete control)",[6]; [28],0
same,"Ducksalad plant response rating (0 to 10 scale, 0 is no effect, 10 is complete control)",[6]; [29],0
same,Ducksalad plant response rating,[6]; [30],0
same,Ducksalad plant response rating,[6]; [31],0
same,Blackgrass plant response rating,[7]; [21],3
same,Blackgrass plant response rating,[7]; [32],3
same,"Plant response rating, Blackgrass",[7]; [22],5
same,"Plant response rating, Blackgrass",[7]; [23],0
same,Blackgrass plant response rating,[7]; [24],0
same,Blackgrass plant response rating,[7]; [27],2
same,Blackgrass plant response rating,[7]; [25],2
same,Blackgrass plant response rating,[7]; [26],2
same,Rape plant response rating,[8]; [21],0
same,"Plant response rating, Rape",[8]; [22],0
same,"Plant response rating, Rape",[8]; [23],0
same,Rape plant response rating,[8]; [24],0
same,Rape plant response rating,[8]; [25],0
same,Rape plant response rating,[8]; [26],0
same,Corn plant response rating,[9]; [21],0
same,Corn plant response rating,[9]; [32],0
same,"Plant response rating, Corn",[9]; [22],0
same,"Plant response rating, Corn",[9]; [23],0
same,Corn plant response rating,[9]; [24],0
same,Corn plant response rating,[9]; [25],0
same,Corn plant response rating,[9]; [26],0
same,"Plant response rating, Barnyardgrass (0 to 10 scale, 0 is no effect, 10 is complete control)",[10]; [28],0
same,"Barnyardgrass plant response rating (0 to 10 scale, 0 is no effect, 10 is complete control)",[10]; [29],0
same,Barnyardgrass plant response rating,[10]; [30],0
same,Barnyardgrass plant response rating,[10]; [31],0
same,Sugarbeets plant response rating,[11]; [21],0
same,"Plant response rating, Sugarbeets",[11]; [22],0
same,"Plant response rating, Sugarbeets",[11]; [23],0
same,Sugarbeets plant response rating,[11]; [24],0
same,Sugarbeets plant response rating,[11]; [25],0
same,Sugarbeets plant response rating,[11]; [26],0
same,Morningglory plant response rating,[12]; [21],8
same,"Plant response rating, Morningglory",[12]; [22],8
same,"Plant response rating, Morningglory",[12]; [23],0
same,Morningglory plant response rating,[12]; [24],0
same,Morningglory plant response rating,[12]; [25],0
same,Morningglory plant response rating,[12]; [26],8
same,Bedstraw plant response rating,[13]; [32],0
same,"Plant response rating, Bedstraw",[13]; [23],0
same,Bedstraw plant response rating,[13]; [24],0
same,Velvetleaf plant response rating,[14]; [21],0
same,"Plant response rating, Velvetleaf",[14]; [22],0
same,"Plant response rating, Velvetleaf",[14]; [23],0
same,Velvetleaf plant response rating,[14]; [24],0
same,Velvetleaf plant response rating,[14]; [25],0
same,Velvetleaf plant response rating,[14]; [26],0
same,Giant foxtail plant response rating,[15]; [21],0
same,"Plant response rating, Giant foxtail",[15]; [22],0
same,"Plant response rating, Giant foxtail",[15]; [23],2
same,Giant foxtail plant response rating,[15]; [24],8
same,Giant foxtail plant response rating,[15]; [25],9
same,Giant foxtail plant response rating,[15]; [26],0
same,"Plant response rating, S. Flatsedge (0 to 10 scale, 0 is no effect, 10 is complete control)",[16]; [28],0
same,"S. Flatsedge plant response rating (0 to 10 scale, 0 is no effect, 10 is complete control)",[16]; [29],0
same,S. Flatsedge plant response rating,[16]; [30],0
same,S. Flatsedge plant response rating,[16]; [31],0
same,Nutsedge plant response rating,[17]; [21],0
same,"Plant response rating, Nutsedge",[17]; [22],0
same,"Plant response rating, Nutsedge",[17]; [23],0
same,Nutsedge plant response rating,[17]; [24],0
same,Nutsedge plant response rating,[17]; [25],0
same,Nutsedge plant response rating,[17]; [26],0
same,Crabgrass plant response rating,[18]; [21],0
same,Crabgrass plant response rating,[18]; [32],0
same,"Plant response rating, Crabgrass",[18]; [22],2
same,"Plant response rating, Crabgrass",[18]; [23],0
same,Crabgrass plant response rating,[18]; [24],4
same,Crabgrass plant response rating,[18]; [25],9
same,Crabgrass plant response rating,[18]; [26],0
same,Cocklebur plant response rating,[19]; [21],0
same,Cocklebur plant response rating,[19]; [32],0
same,"Plant response rating, Cocklebur",[19]; [22],1
same,"Plant response rating, Cocklebur",[19]; [23],0
same,Cocklebur plant response rating,[19]; [24],0
same,Cocklebur plant response rating,[19]; [27],0
same,Cocklebur plant response rating,[19]; [25],0
same,Cocklebur plant response rating,[19]; [26],0
same,Redroot pigweed plant response rating,[20]; [21],0
same,"Plant response rating, Redroot pigweed",[20]; [22],3
same,"Plant response rating, Redroot pigweed",[20]; [23],0
same,Redroot pigweed plant response rating,[20]; [24],0
same,Redroot pigweed plant response rating,[20]; [25],8
same,Redroot pigweed plant response rating,[20]; [26],0
